Test results from patent publication US6558900B2, “Regulation of apoptosis and in vitro model for studies thereof” (Emory University, priority 1996, dated 2003).
“Also recorded” adds a separate entry of the source.

Key:
[1] = system: variety of cell types; conditions: cited from earlier work
[2] = system: U937 cells; assay: Staurosporine treatment of human monoblastic U937 cells; assay type: cell-based
[3] = system: HeLa cells; assay: Staurosporine treatment of HeLa cells: cytochrome c in S-cytosol and PARP cleavage; assay type: cell-based, human; conditions: 1 μM, 6 hr
Experimental: HeLa cells were treated as described in FIG. 9. On day 2, staurosporine at a final concentration of 1 μM was added to the medium as indicated. After incubation at 37° C. for 6 hr, the cells were harvested and S-cytosols were prepared as described in FIG. 9. In FIG. 10A, a 50 μg aliquot of HeLa cell S-100 as in FIGS. 1-7 (lane 1), or S-cytosol from HeLa cells (lane 2), or S-cytosol from HeLa cells treated with staurosporine for 6 hr. In lane 4, aliquot of 0.2 μg of Apaf-2 purified through Mono S column step. Proteins were separated using 15% SDS-PAGE, transferred to a nitrocellulose filter, and probed with a monoclonal anti-cytochrome c antibody and the antigen/antibody complex was visualized by the ECL method as described herein. Kodak X-OMAT AR X-ray film was exposed for 15 seconds. The arrow denotes the position of cytochrome c; X denotes protein bands cross-reacting with this antibody. In FIG. 10B, aliquots containing 4.5 μg of S-cytosol from HeLa cells (−staurosporine) or HeLa cells treated with 1 μM staurosporine for 6 hr (+staurosporine) were incubated with 10 μl aliquots of in vitro translated, 35S-labeled PARP for 30 min at 30° C. in a volume of 20 μl of buffer A. Samples were then subjected to 12% SDS-PAGE, transferred to a nitrocellulose filter, and film was exposed for 4 hr at room temperature.
HeLa cells were treated with staurosporine. […]

[4] = system: hamster liver nuclei; assay: DNA fragmentation assay (HeLa S-100 incubated with hamster liver nuclei); assay type: biochemical; conditions: 1 mM nucleotide, 37° C., 2 hr
Experimental: FIGS. 1A-1D illustrate dATP-dependent activation of CPP32 and DNA fragmentation in vitro. Aliquots (10 μl) of HeLa cell S-100 (50 μg) were incubated alone (lane 1), in the presence of 1 mM ATP (lane 2), or in the presence of 1 mM dATP (lane 3) at 30° C. for 1 hr in a final volume of 20 μl of buffer A. FIG. 1A, samples were subjected to SDS-PAGE and transferred to a nitrocellulose filter, probed with a monoclonal anti-CPP32 antibody, and the antigen/antibody complex was visualized by the ECL method. The filter was exposed to Kodak X-OMAT AR X-ray film for 1 min. In FIG. 1B, an aliquot of 10 μl of in vitro translated, ^35S-labeled PARP was added to each reaction. After 5 min, the samples were subjected to SDS-PAGE and transferred to a nitrocellulose filter. The filter was exposed to film for 2 hr at room temperature. In FIG. 1C, a 5 μl aliquot of in vitro translated, ^35S-labeled SREBP-2 was added to each reaction. After incubation at 30° C. for 30 min, the samples were subjected to SDS-PAGE, the gel was dried and exposed to film for 2 hr at room temperature. […]
FIGS. 2A-2B illustrate the nucleotide specificity for in vitro activation of CPP32 and DNA fragmentation. […] The DNA was isolated, analyzed by 2% agarose gel electrophoresis and visualized by ethidium bromide staining. […]

[5] = system: CPP32; assay: Activation of endogenous CPP32 in HeLa cell S-100 (Western blot; cleavage of 35S-labeled PARP and SREBP-2); assay type: biochemical, human; conditions: 1 mM nucleotide, 30° C., 1 hr, Western blot
Experimental: FIGS. 1A-1D illustrate dATP-dependent activation of CPP32 and DNA fragmentation in vitro. Aliquots (10 μl) of HeLa cell S-100 (50 μg) were incubated alone (lane 1), in the presence of 1 mM ATP (lane 2), or in the presence of 1 mM dATP (lane 3) at 30° C. for 1 hr in a final volume of 20 μl of buffer A. FIG. 1A, samples were subjected to SDS-PAGE and transferred to a nitrocellulose filter, probed with a monoclonal anti-CPP32 antibody, and the antigen/antibody complex was visualized by the ECL method. The filter was exposed to Kodak X-OMAT AR X-ray film for 1 min. In FIG. 1B, an aliquot of 10 μl of in vitro translated, ^35S-labeled PARP was added to each reaction. After 5 min, the samples were subjected to SDS-PAGE and transferred to a nitrocellulose filter. The filter was exposed to film for 2 hr at room temperature. In FIG. 1C, a 5 μl aliquot of in vitro translated, ^35S-labeled SREBP-2 was added to each reaction. After incubation at 30° C. for 30 min, the samples were subjected to SDS-PAGE, the gel was dried and exposed to film for 2 hr at room temperature. In FIG. 1D, a 50 μlaliquot of HeLa cell S-100 (250 μg) was incubated with 6 μl Hamster Liver nuclei in the absence (lane 1), or presence of 1 mM ATP (lane 2) or dATP (lane 3) for 2 hr at 37° C. in a final volume of 60 μl of buffer A. DNA was isolated as described in the Examples and size-separated by agarose gel electrophoresis (2% agarose), and the DNA was visualized by ethidium bromide staining.
Activation of CPP32 and DNA fragmentation are two well characterized biochemical markers of apoptosis and its initiation. With the goal of producing an in vitro system that duplicates apoptosis, we prepared 100,000×g cytosolic supernatant (S-100) from suspension cultures of HeLa cells. The activation of CPP32 is the result of cleavage of its 32 kDa precursor into the 20 kDa NH2-terminal fragment and 11 kDa COOH-terminal fragment [Nicholson et al. (1995) supra], thus the activation of CPP32 in the HeLa cell S-100 was monitored by Western blot analysis using a monoclonal antibody against the 20 kDa fragment of CPP32 (FIG. 1A). The enzymatic activity of CPP32 was assayed by measuring the cleavage of two ^35S-labeled substrates, PARP (FIG. 1B) and SREBP-2 (FIG. 1C). DNA fragmentation was assayed by incubating the HeLa cell S-100 with nuclei isolated from hamster liver followed by genomic DNA extraction and analysis by agarose gel electrophoresis. […] The sizes of the cleaved products of PARP and SREBP-2 were the same as observed in cells undergoing apoptosis [Kaufmann et al. (1993) Cancer Res. 53, 3976-3985; Wang et al. (1996) supra]. […]

Structure (SMILES): CN[C@@H]1C[C@H]2O[C@@](C)([C@@H]1OC)n1c3ccccc3c3c4c(c5c6ccccc6n2c5c31)C(=O)NC4 [staurosporine]
- initiation of apoptosis [1]: potent apoptosis inducer
- cytochrome c in cytosol / CPP32 activation [2]: The same phenomenon was also observed
- activation of endogenous CPP32 detected by cleavage of PARP [3]: resulted in activation of the endogenous CPP32
- cytochrome c in S-cytosol ([3]; vs non-treated cells): increased release of cytochrome c to the cytosol; also recorded: markedly elevated cytochrome c; also recorded: increased cytosolic cytochrome c

Structure (SMILES): Nc1ncnc2c1ncn2[C@@H]1O[C@H](COP(=O)(O)OP(=O)(O)OP(=O)(O)O)[C@@H](O)[C@H]1O [ATP]
- DNA fragmentation in hamster liver nuclei [4]: Such fragmentation did not occur
- activation of CPP32 in HeLa cell S-100 [5]: no activation of CPP32 was observed
